Laboratory results reported in patent US10259781B2, “Imaging agents” (THE REGENTS OF THE UNIVERSITY OF MICHIGAN, priority 2012, dated 2019).

Legend:
Biodistribution in rats = assay type: in vivo, rat; conditions: for Biodistribution, Ovary / Biodistribution, Testes / Biodistribution, Uterus: n = 2
Protocol: During the development of embodiments of the technology, data were collected from bioevaluation studies of [^18F]4F-MHPG. […]
During the development of embodiments of the technology provided herein, the biodistribution of [^18F]4F-MHPG into the organs of rats was assessed. In particular, four time points (Table 3) were collected and used to derive human radiation absorbed dose estimates using the OLINDA/EXM 1.0 software package (see, e.g., Stabin et al. (2005) “OLINDA/EXM; the second-generation personal computer software for internal dose assessment in nuclear medicine”, J Nucl Med. 46: 1023-7). […] These values were entered into the Dynamic Bladder model of OLINDA/EXM, assuming a 4.0-hour void interval. Organs with the highest absorbed dose estimates included the urinary bladder wall (0.666 rad/mCi), […] (0.221 rad/mCi), small intestine (0.201 rad/mCi), and the heart wall (0.201 rad/mCi). An ‘effective dose’ of 0.091 rem/mCi was estimated for [^18F]4F-MHPG. Under United States Federal Regulations governing research with a new radiopharmaceutical (21 CFR § 361.1), the maximum allowable radiation absorbed dose to an individual organ (other than the gonads) is 5 rad. Considering the maximum estimated absorbed dose (urinary bladder wall; 0.666 rad/mCi), initial PET studies in human subjects could use a maximum of 7.5 mCi of [^18F]4F-MHPG. This would correspond to an ‘effective dose’ of 0.68 rem.

[1] = system: cardiac sympathetic neurons; assay: Isolated working rat heart model: neuronal uptake and clearance kinetics
Protocol: The radiotracer was infused into the heart for 10 minutes to measure the tracer uptake rate into cardiac sympathetic neurons (Kup, shown in units of ml/min/g tissue wet). Then, the heart was infused with normal heart perfusate to measure the tracer clearance rate from the heart over 2 hours.
Experiments were conducted to test ^11C-phenoxyethylguanidine (PEG), e.g., to establish baseline values for the NET transport rate (Kup, expressed in units of mL perfusate/min/g wet) and the clearance rate from sympathetic neurons (T1/2, expressed in units of hours).

[2] = system: cardiac sympathetic nerve terminals; assay: MicroPET imaging and myocardial kinetics (compartmental modeling, Patlak graphical analysis) in monkeys; assay type: in vivo, rhesus macaque monkey
Protocol: A series of microPET imaging studies were performed in the macaque model to assess image quality and tracer kinetics. In most of these the time course of the metabolic breakdown of [^18F]4F-MHPG in plasma was also determined. The studies are summarized below in Table 1.
During the development of embodiments of the technology provided herein, the kinetics of [^18F]4F-MHPG in monkey hearts was assessed using either compartmental modeling or Patlak graphical analysis to obtain quantitative measures of regional cardiac sympathetic nerve density.
For some analyses, a simplified compartmental model that assumed irreversible trapping inside nerve terminals was used to estimate the model rate constants K1 (ml/min/g), k2 (min^−1), k3 (min^−1), and a blood volume fraction BV (dimensionless) (see, e.g., FIG. 7). In both the control studies and DMI blocking studies, the model quickly converged to a single global minimum in just a few iterations of the nonlinear regression analysis (FIG. 8). […] This aggregate parameter provides a stable measure of cardiac nerve density that declined in a dose-dependent manner with increasing DMI dose (FIG. 9, “Kinetic modeling”).
For some analyses, Patlak graphical analysis was used, which uses a mathematical transformation of the kinetic data Cp(t) and Ct(t) to generate a Tatlak plot′ having a characteristic linear phase (see, e.g., Patlak and Blasberg (1985) “Graphical evaluation of blood-to-brain transfer constants from multiple-time uptake data. Generalizations.” J Cereb Blood Flow 5: 584-90). The slope of the linear portion of a Patlak plot, Kp (ml/min/g), provides an alternate estimate of the ‘net uptake rate constant’ Ki (ml/min/g). Thus, for the model structure used (FIG. 7), the slope of the Patlak plot is given by Kp≈(K1k3)/(k2+k3).
During the development of embodiments of the technology provided herein, the myocardial kinetics of [^18F]4F-MHPG was assessed using Patlak graphical analysis and metabolite-corrected plasma input functions. In this example, the Patlak plot is highly linear (r^2=1.00) and the estimated Patlak slope Kpatlak=0.252 ml/min/g. […] As such, regional estimates of the Patlak slope from Patlak analysis of the kinetics of [^18F]4F-MHPG serve as robust measures of regional cardiac sympathetic nerve density in patients with heart diseases.

[3] = 30 minutes after injection, n=5

N=C(N)NCCc1ccc(F)c(O)c1 [[^18F]4F-MHPG] [4-[^18F]fluoro-meta-hydroxy-phenethylguanidine]
maximum percentage of the injected dose observed in the gastrointestinal tract (Biodistribution in rats): 12.6%
Biodistribution, Adrenal (Biodistribution in rats; 5 min): 0.203 ± 0.083 % ID · kg/g
Biodistribution, Blood (Biodistribution in rats; 5 min): 0.062 ± 0.004 % ID/g
Biodistribution, Bone (Biodistribution in rats; 5 min): 0.060 ± 0.015 % ID/g
Biodistribution, Brain (Biodistribution in rats; 5 min): 0.004 ± 0.001 % ID · kg/g
Biodistribution, Eyeballs (Biodistribution in rats; 5 min): 0.039 ± 0.006 % ID · kg/g
Biodistribution, Heart (Biodistribution in rats; 5 min): 0.746 ± 0.067 % ID · kg/g
Biodistribution, Kidney (Biodistribution in rats; 5 min): 1.398 ± 0.530 % ID · kg/g
Biodistribution, Liver (Biodistribution in rats; 5 min): 0.477 ± 0.110 % ID · kg/g
Biodistribution, Lung (Biodistribution in rats; 5 min): 0.267 ± 0.045 % ID · kg/g
Biodistribution, Muscle (Biodistribution in rats; 5 min): 0.019 ± 0.005 % ID/g
Biodistribution, Pancreas (Biodistribution in rats; 5 min): 0.137 ± 0.024 % ID · kg/g
Biodistribution, Spleen (Biodistribution in rats; 5 min): 0.268 ± 0.044 % ID · kg/g
Biodistribution, Stomach (Biodistribution in rats; 5 min): 0.116 ± 0.021 % ID · kg/g
Biodistribution, Ovary (Biodistribution in rats; 5 min): 0.194 ± 0.048 % ID · kg/g
Biodistribution, Testes (Biodistribution in rats; 5 min): 0.018 ± 0.002 % ID · kg/g
Biodistribution, Uterus (Biodistribution in rats; 5 min): 0.268 ± 0.044 % ID · kg/g
Biodistribution, Adrenal (Biodistribution in rats; 30 min): 0.181 ± 0.069 % ID · kg/g
Biodistribution, Blood (Biodistribution in rats; 30 min): 0.022 ± 0.003 % ID/g
Biodistribution, Bone (Biodistribution in rats; 30 min): 0.039 ± 0.015 % ID/g
Biodistribution, Brain (Biodistribution in rats; 30 min): 0.003 ± 0.000 % ID · kg/g
Biodistribution, Eyeballs (Biodistribution in rats; 30 min): 0.040 ± 0.004 % ID · kg/g
Biodistribution, Heart (Biodistribution in rats; 30 min): 0.602 ± 0.111 % ID · kg/g
Biodistribution, Kidney (Biodistribution in rats; 30 min): 0.183 ± 0.055 % ID · kg/g
Biodistribution, Liver (Biodistribution in rats; 30 min): 0.406 ± 0.071 % ID · kg/g
Biodistribution, Lung (Biodistribution in rats; 30 min): 0.136 ± 0.032 % ID · kg/g
Biodistribution, Muscle (Biodistribution in rats; 30 min): 0.025 ± 0.011 % ID/g
Biodistribution, Pancreas (Biodistribution in rats; 30 min): 0.145 ± 0.021 % ID · kg/g
Biodistribution, Spleen (Biodistribution in rats; 30 min): 0.262 ± 0.055 % ID · kg/g
Biodistribution, Stomach (Biodistribution in rats; 30 min): 0.110 ± 0.004 % ID · kg/g
Biodistribution, Ovary (Biodistribution in rats; 30 min): 0.171 ± 0.020 % ID · kg/g
Biodistribution, Testes (Biodistribution in rats; 30 min): 0.010 ± 0.001 % ID · kg/g
Biodistribution, Uterus (Biodistribution in rats; 30 min): 0.155 ± 0.001 % ID · kg/g
tissue concentration, adrenal medulla (Biodistribution in rats; [3]): 0.54 ± 0.08 percentage of the injected dose per gram
tissue concentration, blood (Biodistribution in rats; [3]): 0.07 ± 0.01 percentage of the injected dose per gram
tissue concentration, left ventricle (Biodistribution in rats; [3]): 1.45 ± 0.13 percentage of the injected dose per gram
tissue concentration, liver (Biodistribution in rats; [3]): 1.14 ± 0.16 percentage of the injected dose per gram
tissue concentration, lung (Biodistribution in rats; [3]): 0.43 ± 0.08 percentage of the injected dose per gram
tissue concentration, muscle (Biodistribution in rats; [3]): 0.07 ± 0.01 percentage of the injected dose per gram
tissue concentration, spleen (Biodistribution in rats; [3]): 0.56 ± 0.10 percentage of the injected dose per gram
Biodistribution, Adrenal (Biodistribution in rats; 60 min): 0.193 ± 0.053 % ID · kg/g
Biodistribution, Blood (Biodistribution in rats; 60 min): 0.016 ± 0.002 % ID/g
Biodistribution, Bone (Biodistribution in rats; 60 min): 0.027 ± 0.009 % ID/g
Biodistribution, Brain (Biodistribution in rats; 60 min): 0.002 ± 0.000 % ID · kg/g
Biodistribution, Eyeballs (Biodistribution in rats; 60 min): 0.041 ± 0.006 % ID · kg/g
Biodistribution, Heart (Biodistribution in rats; 60 min): 0.526 ± 0.116 % ID · kg/g
Biodistribution, Kidney (Biodistribution in rats; 60 min): 0.186 ± 0.090 % ID · kg/g
Biodistribution, Liver (Biodistribution in rats; 60 min): 0.350 ± 0.077 % ID · kg/g
Biodistribution, Lung (Biodistribution in rats; 60 min): 0.091 ± 0.015 % ID · kg/g
Biodistribution, Muscle (Biodistribution in rats; 60 min): 0.016 ± 0.002 % ID/g
Biodistribution, Pancreas (Biodistribution in rats; 60 min): 0.172 ± 0.042 % ID · kg/g
Biodistribution, Spleen (Biodistribution in rats; 60 min): 0.253 ± 0.054 % ID · kg/g
Biodistribution, Stomach (Biodistribution in rats; 60 min): 0.115 ± 0.029 % ID · kg/g
Biodistribution, Ovary (Biodistribution in rats; 60 min): 0.142 ± 0.052 % ID · kg/g
Biodistribution, Testes (Biodistribution in rats; 60 min): 0.008 ± 0.003 % ID · kg/g
Biodistribution, Uterus (Biodistribution in rats; 60 min): 0.112 ± 0.046 % ID · kg/g
Biodistribution, Adrenal (Biodistribution in rats; 120 min): 0.133 ± 0.021 % ID · kg/g
Biodistribution, Blood (Biodistribution in rats; 120 min): 0.009 ± 0.001 % ID/g
Biodistribution, Bone (Biodistribution in rats; 120 min): 0.016 ± 0.005 % ID/g
Biodistribution, Brain (Biodistribution in rats; 120 min): 0.001 ± 0.001 % ID · kg/g
Biodistribution, Eyeballs (Biodistribution in rats; 120 min): 0.026 ± 0.006 % ID · kg/g
Biodistribution, Heart (Biodistribution in rats; 120 min): 0.347 ± 0.055 % ID · kg/g
Biodistribution, Kidney (Biodistribution in rats; 120 min): 0.078 ± 0.024 % ID · kg/g
Biodistribution, Liver (Biodistribution in rats; 120 min): 0.233 ± 0.049 % ID · kg/g
Biodistribution, Lung (Biodistribution in rats; 120 min): 0.036 ± 0.006 % ID · kg/g
Biodistribution, Muscle (Biodistribution in rats; 120 min): 0.015 ± 0.002 % ID/g
Biodistribution, Pancreas (Biodistribution in rats; 120 min): 0.121 ± 0.016 % ID · kg/g
Biodistribution, Spleen (Biodistribution in rats; 120 min): 0.235 ± 0.066 % ID · kg/g
Biodistribution, Stomach (Biodistribution in rats; 120 min): 0.089 ± 0.019 % ID · kg/g
Biodistribution, Ovary (Biodistribution in rats; 120 min): 0.129 ± 0.029 % ID · kg/g
Biodistribution, Testes (Biodistribution in rats; 120 min): 0.004 ± 0.001 % ID · kg/g
Biodistribution, Uterus (Biodistribution in rats; 120 min): 0.081 ± 0.006 % ID · kg/g
kinetics compared with [11C]4F-MHPG [1]: almost identical
net uptake rate constant Ki = (K1k3)/(k2+k3) ([2]; compartmental modeling, control studies, monkey heart): 0.341 ± 0.041 mL/min/g
average measured Patlak slope Kp ([2]; control studies, FIG. 11): 0.302 ± 0.031 mL/min/g
in vivo defluorination ([2]; faint uptake in spinal column bones): little in vivo defluorination
liver uptake compared with [11C]HED or [123I]MIBG ([2]; microPET control studies): much lower
uptake in the lungs and liver ([2]; microPET control studies): very low uptake
estimated Patlak slope Kpatlak ([2]; one control study, rhesus macaque, FIG. 10): 0.252 mL/min/g
